US20230176066A1, “PLASMON-ENHANCED FLUORO-DOT ASSAYS” (Washington University, priority 2021, published 2023)

Key:
[1] = Fluorescence intensity vs. molar concentration of labels; assay type: physicochemical; settings: linear regression
Experimental: Streptavidin-conjugated Cy3-plasmonic-fluor (PF550™ ultrabright fluor) and streptavidin-conjugated Cy5-plasmonic-fluor (PF650™ ultrabright fluor) were purchased from Auragent Biosceince LLC (St. Louis, USA). The extinction was measured using a Shimadzu UV-1800 spectrophotometer. SEM images were obtained using a FEI Nova 2300 field-emission scanning electron microscope at an acceleration voltage of 10 kV. TEM images were obtained using a JEOL JEM-2100F field emission instrument. A drop of aqueous solution was dried on a carbon-coated grid, which had been made hydrophilic by glow discharge. Molar concentrations of plasmonic-fluors was calculated as described previously. Fluorescence intensity was recorded using Azure Biomolecular Imager: Sapphire RGBNIR (Azure Biosystems, Inc. Dublin, USA) and the images were analyzed using Licor Image Studio Lite.
For analyzing the statistical difference between more than two groups, one-way analysis of variance (ANOVA) with a post-hoc Tukey's honest significance test was used. Statistical significance of the data was calculated at 95% (p<0.05) confidence intervals. All values are expressed as mean±standard deviation. GraphPad Prism 6 was used for all statistical analysis. Linear regression was used to calculate the equation and to derive the slope of fluorescence intensity vs. molar concentration graph. […]

JAWS II dendritic cells [2] = assay: ELISA of culture supernatant of JAWS II DC after LPS stimulation; assay type: cell-based, Mouse; settings: low dose and short duration of stimulation
Experimental: (§1) After completion of the incubation duration, the medium was decanted, and the cells were fixed using 100 μl/well of 4% neutral buffered formalin (NBF) for 20 minutes at room temperature. The plates were then washed three times with PBS and incubated with biotinylated detection antibodies, 75 ng/ml in reagent diluent for 2 hours at room temperature. The plates were washed three times using PBS and then were incubated with 100 μl/well of streptavidin Cy5-plasmonic-fluors (extinction 0.5) for 30 minutes at room temperature in dark. For comparison, 100 μl of 1 μg/ml of streptavidin-Cy5 (Thermo Fisher Scientific, catalog number SA1011) as conventional fluorophore and 1 nM of streptavidin QD655™ (Thermo Fisher Scientific, catalog number Q10123MP) was added to each well for 30 minutes at room temperature in dark. The plates were washed with PBS three times, and the nuclei of the cells were stained with 300 nM DAPI solution (Millipore Sigma, St. Louis, Mo., USA) for 5 minutes at room temperature in dark. Finally, the plates were washed three times in PBS and imaged using Nikon TsR2 epifluorescence microscope. For ELISA, culture supernatants of JAWS II DC after treatment described above were collected and TNFα concentration was measured using mouse TNFα DuoSet ELISA kits (R&D systems, catalog number DY410, lot number P189768) as per manufacturer's instructions.

JAWS II dendritic cells [3] = assay: Fluoro-dot assay on JAWS II DC: TNFα secretion after LPS stimulation; assay type: cell-based, Mouse; settings: for TNFα secretion: 90 minutes incubation
Experimental: Mouse TNFα DuoSet ELISA kits (R&D systems, catalog number DY410, lot number P189768) was used to perform the assays. Glass-bottom 96-well black plate (P96-1.5H-N, Cellvis, Mountain View, USA) was first coated with capture antibodies (0.8 μg/ml in PBS), 100 μl/well and incubated overnight at 4° C. The plate was washed three times with 1×PBS and then blocked with 200 μl of reagent diluent (1×PBS in 1% BSA, 0.2 μm filtered). After blocking, the plates were washed three times with PBS. Mouse JAWS II dendritic cells (immature, monocytes ATCC® CRL11904™) were cultured in alpha minimum essential medium with ribonucleosides, deoxyribonucleosides, 4 mM L-glutamine, 1 mM sodium pyruvate and 5 ng/ml murine GM-CSF, 10% heat-inactivated fetal bovine serum, 50 IU/ml of penicillin, 50 μg/ml of streptomycin. JAWS II DCs were seeded on the capture coated plates, at the seeding density of 5,000 cells/well in 100 μl of medium followed by incubation at 37° C. in 5% CO2 for 30 minutes. All the non-adherent cells were removed by taking out the medium and replacing it with 100 μl of fresh medium containing varying amounts of LPS ranging from (0 to 2000 ng/ml). The cells were incubated at 37° C. in 5% CO2 for varying durations from 20 minutes to 90 minutes.
as §1

JAWS II dendritic cells [4] = assay: Multiplexed Fluoro-dot assay: TNFα and IL-6 secretion after LPS stimulation; assay type: cell-based, Mouse; settings: 200 ng/ml LPS
Experimental: Mouse TNFα DuoSet ELISA kits (R&D systems, catalog number DY410, lot number P189768) and mouse IL-6 DuoSet ELISA kit (R&D systems, catalog number DY406, lot number P234212) were used to perform the assays. Glass-bottom 96-well black plate (P96-1.5H-N, Cellvis, Mountain View, USA) was first coated with both TNFα capture antibody (0.8 μg/ml in PBS) and IL-6 capture antibody (2 μg/ml in PBS), 100 μ/well, and incubated overnight at 4° C. The plate was washed three times with 1×PBS and then blocked with 200 μl of reagent diluent (1×PBS in 1% BSA, 0.2 μm filtered). After blocking the plates were washed three times with PBS. JAWS II dendritic cells (ATCC® CRL-11904™) were cultured in alpha minimum essential medium with ribonucleosides, deoxyribonucleosides, 4 mM L-glutamine, 1 mM sodium pyruvate and 5 ng/ml murine GM-CSF, 10% heat-inactivated fetal bovine serum, 50 IU/ml of penicillin, 50 μg/ml of streptomycin. JAWS II DCs were seeded on the capture coated plates, at the seeding density of 5,000 cells/well in 100 μl of medium followed by incubation at 37° C. in 5% CO2 for 30 minutes. All the non-adherent cells were removed by taking out the medium and replacing it with 100 μl of fresh medium containing 200 ng/ml of LPS. The cells were incubated at 37° C. in 5% CO2 for 30 minutes, 1 hour, 2 hours, and 3 hours. The wells with medium and without LPS were incubated for 3 hours. […]

Substance	slope of fluorescence intensity vs. molar concentration, steeper than that of the conventional fluorophore (Cy5 or Cy3) [1]	amount of TNFα secretion by ELISA (JAWS II dendritic cells [2])	TNFα secretion (JAWS II dendritic cells [3]; 2 ng/ml LPS)	TNFα secretion (JAWS II dendritic cells [3]; 20 ng/ml LPS)	duration of treatment at which difference between treated and untreated cells was statistically significant (JAWS II dendritic cells [3]; 200 ng/ml LPS)	incubation time after which TNFα secretion was detectable (JAWS II dendritic cells [3]; 200 ng/ml LPS) [min]	TNFα secretion with increasing LPS concentration (JAWS II dendritic cells [3]; 20, 200, 2000 ng/ml LPS, 90 minutes)	LPS dose at which difference between treated and untreated cells was statistically significant (JAWS II dendritic cells [3]; 90 min incubation, number of clusters and particles/cluster)	secretion of TNFα and IL-6 with increasing duration of LPS incubation (JAWS II dendritic cells [4]; 30 minutes to 3 hours)	relative secretion of IL-6 and TNFα at longer time durations (JAWS II dendritic cells [4]; 2 hours and 3 hours)
Cy5-plasmonic-fluor: Streptavidin-conjugated Cy5 plasmon-enhanced fluorescent nanolabel purchased from Auragent Bioscience	~16,000 fold	–	–	–	–	–	–	–	–	–
lipopolysaccharide [LPS]	–	below its detection limit	no significant secretion of TNFα	Substantial secretion	more than 40 minutes	40	increase in TNFα secretion	higher than 20 ng/ml	increase in the overall secretion of both cytokines	more predominant IL-6 secretion as compared to TNFα
